# In ChEMBL document CHEMBL1201862, “PubChem BioAssay data set” (2004):
# Active and inactive are the calls of the source.
# How the values were obtained:
# [1] = A cytotoxicity screen of small molecule inhibitors of the PhoP region in Salmonella typhi identified in the primary screen. [Related pubchem assays: 1850, 1864, 1985 ]; format: functional
# Prothrombin = Prothrombin (Homo sapiens, UniProt P00734); test: Thrombin 1536 HTS Dose Response Confirmation. [Related pubchem assays: 1046 (Thrombin 1536 HTS; hits were confirmed in this assay)]; format: functional
# [2] = target: T1, Polyadenylate-binding protein 1 (Homo sapiens, UniProt P11940); test: PABP1 MLLE–PAM2 interaction inhibitors, dose response, miRNA deadenylation inhibitor project, biochemical, fluorescence polarization, Cy5-PAM2 peptide, secondary (AID 602260); format: functional; details: read-out: IC50_Mean
# T1 sequence (P11940 whole entry): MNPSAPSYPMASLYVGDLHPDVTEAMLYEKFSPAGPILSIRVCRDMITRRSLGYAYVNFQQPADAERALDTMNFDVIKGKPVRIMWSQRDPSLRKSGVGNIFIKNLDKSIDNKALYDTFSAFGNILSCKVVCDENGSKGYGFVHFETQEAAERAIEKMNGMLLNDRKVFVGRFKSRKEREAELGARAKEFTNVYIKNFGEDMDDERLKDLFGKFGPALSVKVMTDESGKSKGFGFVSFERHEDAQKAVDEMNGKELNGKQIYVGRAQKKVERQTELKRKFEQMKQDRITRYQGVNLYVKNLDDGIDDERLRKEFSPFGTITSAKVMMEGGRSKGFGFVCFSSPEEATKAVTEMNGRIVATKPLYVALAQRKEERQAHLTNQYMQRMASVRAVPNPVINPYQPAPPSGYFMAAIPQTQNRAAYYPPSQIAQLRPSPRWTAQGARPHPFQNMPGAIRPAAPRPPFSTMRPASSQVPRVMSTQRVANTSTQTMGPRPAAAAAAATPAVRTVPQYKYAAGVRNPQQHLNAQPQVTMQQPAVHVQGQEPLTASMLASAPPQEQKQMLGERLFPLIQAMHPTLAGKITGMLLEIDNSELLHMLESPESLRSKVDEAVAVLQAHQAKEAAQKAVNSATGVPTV
# [3] = target: T1, Polyadenylate-binding protein 1; test: PABP1 MLLE–PAM2 binding inhibitor potency, dose response, biochemical, fluorescence polarization, FITC-PAM2 peptide (AID 602259); format: functional; details: read-out: IC50_Mean
# [4] = target: Fructose-bisphosphate aldolase (Mycobacterium tuberculosis, UniProt P9WQA3); test: Fluorescence-based biochemical high throughput dose response assay for inhibitors of the fructose-bisphosphate aldolase (FBA) of M. tuberculosis.; format: functional
# Fructose-bisphosphate aldolase, sequence (P9WQA3 whole entry): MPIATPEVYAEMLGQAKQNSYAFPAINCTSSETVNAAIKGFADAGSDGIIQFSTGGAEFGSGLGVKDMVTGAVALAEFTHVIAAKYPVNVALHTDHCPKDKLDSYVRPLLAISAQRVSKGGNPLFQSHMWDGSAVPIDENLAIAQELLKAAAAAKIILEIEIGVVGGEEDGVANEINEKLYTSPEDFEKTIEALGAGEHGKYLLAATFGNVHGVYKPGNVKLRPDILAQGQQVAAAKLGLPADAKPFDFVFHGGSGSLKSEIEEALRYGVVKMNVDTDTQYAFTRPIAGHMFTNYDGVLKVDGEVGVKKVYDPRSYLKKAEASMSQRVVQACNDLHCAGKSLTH
# [5] = HEK293T cell cytotoxicity, dose response, cytotoxicity control for HIV Vif inhibitor project, cherry-picks (AID 652208); format: functional, cell-based
# Paired box protein Pax-8 = Paired box protein Pax-8 (Homo sapiens, UniProt Q06710); test: inhibitors of PAX8-driven TPO luciferase reporter, dose response, RMG-I cells, cherry-pick (AID 687027); format: functional, cell-based;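 also: luciferase reporter driven by Pax8 target thyroperoxidase promoter measured by SteadyGlo luminescence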
# Paired box protein Pax-8, sequence (Q06710 whole entry): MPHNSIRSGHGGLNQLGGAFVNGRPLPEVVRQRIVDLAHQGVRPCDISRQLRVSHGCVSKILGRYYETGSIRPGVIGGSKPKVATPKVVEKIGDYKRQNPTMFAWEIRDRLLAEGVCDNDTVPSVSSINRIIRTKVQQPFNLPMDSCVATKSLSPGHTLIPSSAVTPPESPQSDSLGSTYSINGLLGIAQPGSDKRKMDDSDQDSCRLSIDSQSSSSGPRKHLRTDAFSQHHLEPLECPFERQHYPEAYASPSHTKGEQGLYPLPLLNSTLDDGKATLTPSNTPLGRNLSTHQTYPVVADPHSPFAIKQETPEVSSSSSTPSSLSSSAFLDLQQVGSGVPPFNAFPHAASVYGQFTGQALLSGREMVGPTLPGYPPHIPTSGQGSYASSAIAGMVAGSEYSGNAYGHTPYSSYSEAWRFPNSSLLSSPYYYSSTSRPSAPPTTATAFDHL
# [6] = PAX2 cell-based inhibition, dose response, selectivity assay for PAX8 inhibitor project, plate reader, dry powder samples (AID 743048); format: functional;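 also: HEK293 cells carrying a WT1 promoter luciferase reporter driven by expressed Pax2; potency is for inhibition of Pax2 driven reporter signal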
# [7] = cytotoxicity in COV362 ovarian cancer cells, dose response, cytotoxicity control for PAX8 inhibitor project, cell-based, plate reader, dry powder, SA12 (AID 743144); format: functional
# [8] = NIH:OVCAR-3 ovarian cancer cell cytotoxicity, dose response, PAX8 inhibitor project, plate reader, dry powder samples (AID 743044); format: functional, cell-based
# [9] = PAX5 activity inhibitors, dose response, selectivity assay for PAX8 inhibitor project, cell-based, plate reader, dry powder samples (AID 743047); format: functional;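 also: HEK293 cells carrying a Pax5 driven CD19 promoter luciferase reporter; potency of inhibitors that lower reporter luminescence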
# [10] = IGROV1 ovarian cancer cell cytotoxicity, dose response, PAX8 inhibitor project, plate reader, dry powder samples (AID 743043); format: functional, cell-based; details: IGROV-1
# [11] = cytotoxicity in COV434 cells, dose response, cytotoxicity control for PAX8 inhibitor project, cell-based, plate reader, dry powder, SA7 (AID 743145); format: functional
# [12] = cytotoxicity in OV-90 ovarian cancer cells, dose response, PAX8 inhibitor project, cell-based, plate reader, dry powder, SA8 (AID 743149); format: functional
# [13] = cytotoxicity dependent on PAX8, dose response, cell-based, plate reader, dry powder (AID 743049); format: functional
# [14] = target: Disintegrin and metalloproteinase domain-containing protein 17 (Homo sapiens, UniProt P78536); test: exosite inhibitors of ADAM17, dose response, biochemical (AID 743260)
# [15] = ADAM10 protease inhibitors, dose response, selectivity assay for ADAM17 exosite inhibitor project, biochemical, FRET peptide substrate, recombinant human ADAM10 (AID 743259);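 also: ADAM10 enzyme cleaving a FRET peptide substrate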
# HEK293 = test: HEK293T cell cytotoxicity, dose response, cytotoxicity control, ATP luminescence, cherry-pick samples (AID 687005); format: functional, cell-based; details: Homo sapiens;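 also: cells exposed to compound for 48 hours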
# [16] = HEK293 Cytotoxicity Assay Measured in Cell-Based System Using Plate Reader - 7071-01_Inhibitor_Dose_CherryPick_Activity_Set2.; format: functional
# [17] = HepG2 cell cytotoxicity, dose response, cytotoxicity control, ATP luminescence, cherry-pick, set 6 (AID 1053125); format: functional, cell-based
# cells [18] = details: A549
# cells [19] = details: HEK293;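 also: cells exposed to compound for 48 hours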
# [20] = target: T2, Rac GTPase-activating protein 1 (Homo sapiens, UniProt Q9H0H5); test: MgcRacGAP GTPase-activating activity inhibitors, confirmation, biochemical, ADP Hunter fluorescence, primary and confirmatory (AID 624330); format: functional
# T2 sequence (Q9H0H5 whole entry): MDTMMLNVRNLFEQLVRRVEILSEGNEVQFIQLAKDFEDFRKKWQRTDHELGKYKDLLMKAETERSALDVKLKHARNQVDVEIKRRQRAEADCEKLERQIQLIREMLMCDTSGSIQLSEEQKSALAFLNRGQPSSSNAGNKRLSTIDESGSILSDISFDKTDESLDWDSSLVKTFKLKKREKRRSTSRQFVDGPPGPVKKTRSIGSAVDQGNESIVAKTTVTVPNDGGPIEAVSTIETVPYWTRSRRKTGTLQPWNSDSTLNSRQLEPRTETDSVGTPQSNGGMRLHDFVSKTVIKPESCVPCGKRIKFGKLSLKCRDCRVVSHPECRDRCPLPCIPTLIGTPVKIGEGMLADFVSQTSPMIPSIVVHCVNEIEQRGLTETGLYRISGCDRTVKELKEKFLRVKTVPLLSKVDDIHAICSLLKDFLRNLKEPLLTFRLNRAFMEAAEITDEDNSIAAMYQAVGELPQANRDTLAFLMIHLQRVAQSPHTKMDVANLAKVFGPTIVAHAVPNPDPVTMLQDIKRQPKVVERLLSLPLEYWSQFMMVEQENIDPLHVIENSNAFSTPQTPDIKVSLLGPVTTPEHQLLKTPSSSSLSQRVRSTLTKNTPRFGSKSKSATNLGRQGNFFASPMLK
# [21] = target: SWI/SNF-related matrix-associated actin-dependent regulator of chromatin subfamily A member 2 (Homo sapiens, UniProt P51531); test: Luminescence-based cell-based high throughput dose response assay to identify activators of the function of SWI/SNF related, matrix associated, actin dependent regulator of chromatin, subfamily a, member 2 (SMARCA2, BRM).; format: functional
# SWI/SNF-related matrix-associated actin-dependent regulator of chromatin subfamily A member 2, sequence (P51531 whole entry): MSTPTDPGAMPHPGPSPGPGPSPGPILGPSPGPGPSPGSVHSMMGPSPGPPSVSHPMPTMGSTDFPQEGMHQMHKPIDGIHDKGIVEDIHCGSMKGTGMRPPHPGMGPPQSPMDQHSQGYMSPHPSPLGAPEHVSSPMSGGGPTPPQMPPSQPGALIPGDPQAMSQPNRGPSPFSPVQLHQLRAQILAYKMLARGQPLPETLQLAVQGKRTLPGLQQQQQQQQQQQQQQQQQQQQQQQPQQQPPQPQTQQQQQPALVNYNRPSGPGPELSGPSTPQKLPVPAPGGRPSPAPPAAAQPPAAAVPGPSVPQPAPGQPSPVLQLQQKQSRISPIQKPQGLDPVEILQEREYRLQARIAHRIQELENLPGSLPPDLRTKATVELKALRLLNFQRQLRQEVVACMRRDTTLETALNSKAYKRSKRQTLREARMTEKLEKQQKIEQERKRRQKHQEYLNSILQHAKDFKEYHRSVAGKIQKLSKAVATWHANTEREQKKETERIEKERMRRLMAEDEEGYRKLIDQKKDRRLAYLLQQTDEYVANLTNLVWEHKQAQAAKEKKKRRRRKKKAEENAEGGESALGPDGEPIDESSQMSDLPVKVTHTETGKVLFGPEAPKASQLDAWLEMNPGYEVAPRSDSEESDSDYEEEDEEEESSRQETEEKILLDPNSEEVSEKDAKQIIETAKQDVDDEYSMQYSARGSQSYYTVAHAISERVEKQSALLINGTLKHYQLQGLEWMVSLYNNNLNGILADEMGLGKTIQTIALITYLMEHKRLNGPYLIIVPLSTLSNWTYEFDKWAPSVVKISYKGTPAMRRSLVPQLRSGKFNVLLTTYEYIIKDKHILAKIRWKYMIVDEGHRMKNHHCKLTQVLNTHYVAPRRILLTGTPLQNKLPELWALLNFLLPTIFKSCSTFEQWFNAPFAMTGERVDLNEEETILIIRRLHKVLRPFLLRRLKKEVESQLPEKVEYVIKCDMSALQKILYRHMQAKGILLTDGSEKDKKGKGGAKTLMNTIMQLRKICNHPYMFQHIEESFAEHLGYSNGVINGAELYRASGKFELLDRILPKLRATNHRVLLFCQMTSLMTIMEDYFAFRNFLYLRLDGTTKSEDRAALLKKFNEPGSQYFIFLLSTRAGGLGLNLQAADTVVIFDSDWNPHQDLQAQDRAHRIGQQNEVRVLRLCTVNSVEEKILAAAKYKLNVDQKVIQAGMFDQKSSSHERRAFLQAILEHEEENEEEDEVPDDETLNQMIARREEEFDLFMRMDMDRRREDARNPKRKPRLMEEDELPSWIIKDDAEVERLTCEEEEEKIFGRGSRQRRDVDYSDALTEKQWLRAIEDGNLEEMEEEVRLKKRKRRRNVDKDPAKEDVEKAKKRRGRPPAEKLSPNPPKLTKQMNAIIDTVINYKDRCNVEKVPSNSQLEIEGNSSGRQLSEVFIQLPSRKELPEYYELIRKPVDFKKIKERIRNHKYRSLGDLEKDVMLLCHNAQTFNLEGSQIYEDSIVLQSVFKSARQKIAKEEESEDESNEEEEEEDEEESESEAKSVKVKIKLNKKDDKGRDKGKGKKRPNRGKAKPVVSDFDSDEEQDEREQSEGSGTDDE
# [22] = Counterscreen for activators of the function of SWI/SNF related, matrix associated, actin dependent regulator of chromatin, subfamily a, member 2 (SMARCA2, BRM): Luminescence-based cell-based high throughput dose response assay to identify non-selective compounds using the VP16 reporter assay.; format: functional
# [23] = Shn3 3'UTR reporter inhibitors, dose response, cell-based, Clone20 osteoblasts, firefly luciferase, cherry-picked (AID 624132); format: functional;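 also: firefly luciferase luminescence from reporter carrying the Shn3 3'UTR in osteoblasts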
# [24] = control 3'UTR Renilla luciferase suppression, dose response, counter-screen for Shn3 inhibitor project, cell-based, Clone20-Shn3RL, cherry-picked (AID 624133); format: functional
# [25] = reduction of Shn3 3'UTR firefly luciferase signal, dose response, Schnurri-3 inhibitor project, cell-based, Clone20 osteoblasts, cherry-pick, set 2 (AID 720490); format: functional;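 also: actives lower the luminescence signal as inhibitors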
# [26] = inhibitors of control Renilla luciferase reporter, dose response, counter-screen for Shn3 3'UTR targeting project, Clone20-Shn3RL cells, dual-Glo, cherry-pick, set 2 (AID 720724); format: functional, cell-based; details: Dual-Go Shn3RL
# [27] = target: ATP-dependent translocase ABCB1 (Homo sapiens, UniProt P08183); test: ABCB1 efflux inhibition concentration-response, dose response, Jurkat-DNR cells, JC-1, flow cytometry, follow-up (AID 489002); format: functional
# ATP-dependent translocase ABCB1, sequence (P08183 whole entry): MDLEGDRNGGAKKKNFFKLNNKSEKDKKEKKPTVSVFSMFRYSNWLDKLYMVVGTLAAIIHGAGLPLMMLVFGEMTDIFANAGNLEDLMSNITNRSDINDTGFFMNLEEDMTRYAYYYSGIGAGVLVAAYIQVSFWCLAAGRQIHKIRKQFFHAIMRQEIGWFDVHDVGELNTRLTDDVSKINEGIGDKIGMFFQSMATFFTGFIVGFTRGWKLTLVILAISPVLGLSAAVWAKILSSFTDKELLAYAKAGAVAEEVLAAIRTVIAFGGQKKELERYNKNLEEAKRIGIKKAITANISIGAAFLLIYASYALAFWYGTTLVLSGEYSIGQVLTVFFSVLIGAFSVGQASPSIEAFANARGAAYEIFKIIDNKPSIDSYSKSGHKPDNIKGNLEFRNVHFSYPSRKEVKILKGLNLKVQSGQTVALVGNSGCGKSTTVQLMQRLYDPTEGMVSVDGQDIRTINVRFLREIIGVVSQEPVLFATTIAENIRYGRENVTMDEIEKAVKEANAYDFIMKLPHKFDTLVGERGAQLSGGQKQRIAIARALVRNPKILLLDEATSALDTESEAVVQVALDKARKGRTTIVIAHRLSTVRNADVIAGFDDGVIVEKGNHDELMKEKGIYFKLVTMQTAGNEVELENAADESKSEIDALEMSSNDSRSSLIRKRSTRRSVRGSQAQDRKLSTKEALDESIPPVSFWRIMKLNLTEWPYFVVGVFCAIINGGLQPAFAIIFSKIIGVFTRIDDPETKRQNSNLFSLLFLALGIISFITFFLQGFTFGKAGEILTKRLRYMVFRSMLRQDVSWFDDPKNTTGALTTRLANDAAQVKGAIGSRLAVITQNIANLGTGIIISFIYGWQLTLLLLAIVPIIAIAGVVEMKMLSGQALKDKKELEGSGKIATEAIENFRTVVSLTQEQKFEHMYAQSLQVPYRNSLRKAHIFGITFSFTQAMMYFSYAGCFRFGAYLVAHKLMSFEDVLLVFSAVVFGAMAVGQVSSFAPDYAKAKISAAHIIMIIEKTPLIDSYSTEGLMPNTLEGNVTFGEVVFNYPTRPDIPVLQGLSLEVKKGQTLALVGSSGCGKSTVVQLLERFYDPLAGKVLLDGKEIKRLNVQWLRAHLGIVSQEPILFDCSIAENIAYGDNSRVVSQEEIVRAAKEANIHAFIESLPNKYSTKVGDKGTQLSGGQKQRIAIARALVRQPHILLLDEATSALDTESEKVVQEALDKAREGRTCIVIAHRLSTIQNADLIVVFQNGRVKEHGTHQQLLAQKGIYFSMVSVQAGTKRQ
# [28] = inhibitors of CMV-promoter luciferase reporter, dose response, counter-screen for Pax8 inhibitor project, cell-based, HEK293, luminescence, dry powder (AID 743020); format: functional
# [29] = cytotoxicity in OVCAR4 cells, dose response, cytotoxicity control for PAX8 inhibitor project, cell-based, plate reader, dry powder, SA11 (AID 743150); format: functional; details: OVCAR-4
# [30] = non-specific cell cytotoxicity, dose response, cytotoxicity control for PAX8 inhibitor project, plate reader, dry powder samples (AID 743021); format: functional, cell-based
# [31] = cytotoxicity in OVCAR8 ovarian cancer cells, dose response, PAX8 project, cell-based, plate reader, dry powder samples (AID 743197); format: functional; details: OVCAR-8
# cells [32] = format: functional, cell-based
# [33] = target: T3, Trace amine-associated receptor 1 (Homo sapiens, UniProt Q96RJ0); test: Fluorescence-based cell-based high throughput dose response assay to identify agonists of the human trace amine associated receptor 1 (TAAR1).; format: functional
# T3 sequence (Q96RJ0 whole entry): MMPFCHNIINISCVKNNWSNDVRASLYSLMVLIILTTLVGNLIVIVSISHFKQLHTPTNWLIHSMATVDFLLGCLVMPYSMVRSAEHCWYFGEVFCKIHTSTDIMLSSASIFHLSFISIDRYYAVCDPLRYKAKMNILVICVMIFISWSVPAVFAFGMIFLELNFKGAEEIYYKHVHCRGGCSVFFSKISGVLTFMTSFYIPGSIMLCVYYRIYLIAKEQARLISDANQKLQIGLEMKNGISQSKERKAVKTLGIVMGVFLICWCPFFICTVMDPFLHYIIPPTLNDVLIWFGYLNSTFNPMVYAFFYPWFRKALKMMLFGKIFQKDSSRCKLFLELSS
# [34] = target: T3, Trace amine-associated receptor 1; test: Counterscreen for agonists of the human trace amine associated receptor 1 (hTAAR1): Fluorescence-based cell-based high throughput dose response assay to identify hTAAR1 agonist that also desensitize TAAR1 receptor response.; format: functional
# cells [35] = format: functional, cell-based; remark: listed apart in the source
# Vero = test: Vero cell toxicity, dose response, cytotoxicity control, plate reader, cherry-pick samples (AID 687020); format: functional, cell-based; details: Chlorocebus sabaeus
# [36] = target: Protein disulfide-isomerase (Homo sapiens, UniProt P07237); test: PDI inhibitors, insulin turbidity readout, confirmation, biochemical, dry powder samples, set 2 (AID 652146)
# [37] = target: Metabotropic glutamate receptor 5 (Rattus norvegicus, UniProt P31424); test: Identification of a glycine sulfonamide based non-MPEP site positive allosteric potentiator (PAM) of mGlu5 (calcium_assay).; format: functional
# [38] = HEK293T cytotoxicity, dose response, cytotoxicity control for miR-122 modulator project, cell-based, inhibitor set, cherry-pick, set 2 (AID 720697); format: functional
# [39] = LGR2 antagonists, dose response, cell-based, HEK293, CRE-luciferase reporter, cherry pick (AID 743342); format: functional
# [40] = MITF Orthogonal Assay: SK-MEL-5 CTG Assay Measured in Cell-Based System Using Plate Reader - 2084-02_Inhibitor_Dose_DryPowder_Activity_Set7.; format: functional
# [41] = MITF: Counter assay: A375 proliferation Measured in Cell-Based System Using Plate Reader - 2084-03_Inhibitor_Dose_DryPowder_Activity_Set8.; format: functional; details: A-375
# [42] = CFTR ΔF508 corrector activity in bronchial cells, dose response, human bronchial epithelial cells, plate reader, cherry-pick, two tests (AID 743267); format: functional, cell-based
structure (smiles),measurement,setting,value
O=C(CSc1nc2ccccc2o1)c1cc2ccccc2oc1=O,EC50,[1],> 50 µM (active)
same,IC50,Prothrombin,> 50 µM (inconclusive)
same,IC50,[2],> 66 µM (inactive)
same,IC50,[3],> 66 µM (inactive)
same,IC50,[4],> 10 µM (inactive)
COC(=O)c1ccc(NCc2cc(O)ccc2O)cc1O,AC50,[5],26.3 µM (active)
Cc1nc2sc(C(c3ccco3)N3CCN(C(c4ccccc4)c4ccccc4)CC3)c(O)n2n1 (configuration not stated),AC50,Paired box protein Pax-8,5.25 µM (active)
same,AC50,[6],62.5 µM (active)
same,AC50,[7],69 µM (active)
same,AC50,[8],40.9 µM (active)
same,AC50,[9],> 100 µM (inactive)
same,AC50,[10],17 µM (active)
same,AC50,[11],45.6 µM (active)
same,AC50,[12],47 µM (active)
same,AC50,[13],8.59 µM (active)
Cc1cc(C)n(CCc2nc(-c3ccc(C(C)(C)C)cc3)cs2)n1,IC50,[14],> 69.5 µM (inactive)
same,IC50,[15],36.5 µM (inactive)
Cc1cccc(C)c1NC(=O)C1CCCN1C(=O)OC(C)(C)C (configuration not stated),AC50,HEK293,50.8 µM (active)
same,AC50,[16],50.8 µM (active)
O=C(NCc1cc(C(F)(F)F)ccc1Cl)c1cccc2c1C(=O)c1ccc(Cl)cc1S2(=O)=O,AC50,[17],> 52 µM (inactive)
same,AC50,cells [18],37.6 µM (active)
same,AC50,cells [19],> 52 µM (inactive)
Nc1ccc2c(c1)C(=O)c1cc(N)c(Cl)cc1-2,IC50,[20],22.1 µM (active)
same,EC50,[21],> 91.2 µM (inactive)
same,EC50,[22],> 91.2 µM (inactive)
CCC(C)c1ccc(S(=O)(=O)N2CCN(C(=O)c3ccc(Cl)c(S(=O)(=O)N4CCOCC4)c3)CC2)cc1 (configuration not stated),AC50,[23],5.32 µM (active)
same,AC50,[24],> 70 µM (inactive)
same,AC50,[25],6.16 µM (active)
same,AC50,[26],61.3 µM (active)
Cc1ccc(-c2cc3nc(-c4ccco4)cc(N4CCN(Cc5ccoc5)CC4)n3n2)cc1,EC50,[27],0.01411 µM
Cc1ccc(S(=O)(=O)Nc2ccc3c(c2)C(=O)N([C@H](C)CO)C[C@@H](C)[C@H](CN(C)Cc2ccc(C(F)(F)F)cc2)OCCCC[C@H](C)O3)cc1,AC50,Paired box protein Pax-8,3.93 µM (active)
same,AC50,[6],22 µM (active)
same,AC50,[28],29.4 µM (active)
same,AC50,[8],27 µM (active)
same,AC50,[9],22.1 µM (active)
same,AC50,[29],44.2 µM (active)
same,AC50,[11],35.5 µM (active)
same,AC50,[30],31 µM (active)
same,AC50,[31],14.9 µM (active)
same,AC50,[13],39.7 µM (active)
CC(C)[C@H](NC(=O)c1ccccc1)C(=O)N1CCC[C@H]1C(=O)NCCc1ccccc1Cl,IC50,cells [32],> 29.9 µM (inactive)
same,EC50,[33],0.754 µM (active)
same,IC50,[34],1.2 µM (active)
same,EC50,cells [35],> 29.9 µM (inactive)
O=C(NCCN1CCCC1)[C@H]1N[C@H]2c3ccc(-c4ccccc4)c(=O)n3C[C@H]2[C@@H]1CO,AC50,Vero,23.1 µM (active)
C=CCOc1ccc(CN2CCC(CCOc3ccccc3)(C(=O)N(C)CC)CC2)cc1Cl,AC50,[36],> 30 µM (inactive)
CC(C(=O)Nc1cc(F)cc(C#N)c1)N(c1ccccc1Cl)S(C)(=O)=O (configuration not stated),EC50,[37],5.45 µM
C[C@H](CO)N1C[C@H](C)[C@H](CN(C)S(=O)(=O)c2ccc(F)cc2)Oc2ccc(NS(C)(=O)=O)cc2C1=O,AC50,[38],1.19 µM (active)
C[C@H](CO)N1C[C@H](C)[C@H](CN(C)C(=O)Nc2ccccc2)OCCCC[C@H](C)Oc2ccc(NC(=O)NC3CCCCC3)cc2C1=O,AC50,[39],12 µM (active)
CC1=C(N)C(=O)c2ccccc2C1=O,AC50,[40],3.74 µM (active)
same,AC50,[41],> 70 µM (inactive)
COc1c(O[C@@H]2O[C@H](CO)[C@@H](O)[C@H](O)[C@H]2O)cc2c(c1OC)-c1ccc(SC)c(=O)cc1[C@@H](NC(C)=O)CC2 [THIOCOLCHICOSIDE],AC50,[42],50 µM (active)
